Laboratory results: patent publication US9120779B2, “Inhibitors of HCV NS5A” (PRESIDIO PHARMACEUTICALS, INC., priority 2008, dated 2015)
Where two headings read alike, the source gives them in different places.

System: HCV genotype 1b replicon in Huh 7 cells
Test: HCV replicon assay (luciferase readout, 1b_Huh-Luc/Neo-ET cell line)
Format: cell-based
In short: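 Inhibition expressed as percent of untreated control luciferase signal and fitted to a Hill-slope equation for EC50, with repeat determinations. Compounds were added in triplicate to Huh 7 cells stably expressing the genotype 1b luciferase replicon, with 72 h exposure.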

[1] = Hepatitis C virus, Huh-7, 72 h, read-out: Inhibition of HCV genotype 1b, Table 5, 72 h incubation
[2] = Hepatitis C virus, Huh-7, 72 h, read-out: Inhibition of HCV genotype 1b, Table 3, 72 h incubation
[3] = Hepatitis C virus, Huh-7, 72 h, read-out: Inhibition of HCV genotype 1b, Table 1, 72 h incubation
[4] = Hepatitis C virus, Huh-7, 72 h, read-out: Inhibition of HCV genotype 1b, Table 4, 72 h incubation

COC(=O)N[C@H](C(=O)N1CCC[C@H]1c1ncc(C23CCC(c4ccc(-c5cnc([C@@H]6CCCN6C(=O)[C@@H](NC(=O)N6CCCCC6)C(C)C)[nH]5)cc4)(CC2)CC3)[nH]1)C(C)C [compound 648]
EC50 [1]: 10 to 999 nM

CC(C)[C@H](C(=O)N1CCC[C@H]1c1ncc(-c2ccc(C34CCC(c5cnc([C@@H]6CCCN6C(=O)[C@@H](C(C)C)N(C)C)[nH]5)(CC3)CC4)cc2)[nH]1)N(C)C [compound 920]
EC50 [1]: 10 to 999 nM

COC(=O)N[C@H](C(=O)N[C@@H](C)c1ncc(C23CCC(c4ccc(-c5cnc([C@@H]6CCCN6C(=O)[C@@H](NC(=O)OC)C(C)C)[nH]5)cc4)(CC2)CC3)[nH]1)C(C)C [compound 2097]
EC50 [1]: < 1 nM

COC(=O)N[C@H](C(=O)N1CCC[C@H]1c1ncc(C23CCC(c4ccc(-c5cnc([C@@H]6CCCN6C(=O)[C@H](C(C)C)N(C)C(=O)OC)[nH]5)cc4)(CC2)CC3)[nH]1)C(C)C [compound 912]
EC50 [1]: < 1 nM

C[C@H](NC(=O)[C@H](NC(=O)C1CC1)c1ccccc1)c1ncc(C2CCN(c3c(F)cc(-c4cnc([C@@H]5CCCN5C(=O)[C@H](NC(=O)C5CC5)c5ccccc5)[nH]4)cc3F)CC2)[nH]1 [compound 514]
EC50 [2]: < 1 nM

COC(=O)N[C@H](C(=O)N1CCC[C@H]1c1ncc(C23CCC(c4ccc(-c5cnc([C@@H]6CCCN6C(=O)[C@@H](NC(=O)N6CCC(O)CC6)C(C)C)[nH]5)cc4)(CC2)CC3)[nH]1)C(C)C [compound 649]
EC50 [1]: < 1 nM

COC(=O)N[C@@H](C(=O)N1CCC[C@H]1c1ncc(-c2ccc([C@H]3CC[C@](C)(c4cnc([C@@H]5CCCN5C(=O)[C@H](NC(=O)OC)c5ccccc5)[nH]4)CC3)cc2)[nH]1)c1ccccc1 [compound 2006]
EC50 [3]: < 1 nM

COC(=O)N[C@@H](C(=O)N1CCC[C@H]1c1ncc(-c2ccc(C34CCC(c5cnc([C@@H]6CCCN6C(=O)[C@H](NC(=O)OC)c6ccccc6)[nH]5)(CC3)CC4)cc2)[nH]1)c1ccccc1 [compound 606]
EC50 [1]: < 1 nM

COC(=O)N[C@H](C(=O)N1CCC[C@H]1c1ncc(C23CCC(c4ccc(-c5cnc([C@@H]6CCCN6C(=O)[C@H](NC(=O)N6CCC(O)CC6)C(C)C)[nH]5)cc4)(CC2)CC3)[nH]1)C(C)C [compound 2076]
EC50 [1]: < 1 nM

CC(C)[C@@H](NC(=O)N1CCOCC1)C(=O)N1CCC[C@H]1C(=O)N[C@H]1CC[C@@H](c2ccc(-c3cnc([C@@H]4CCCN4C(=O)[C@H](NC(=O)N4CCOCC4)C(C)C)[nH]3)cc2)CC1 [compound 361]
EC50 [3]: 10 to 999 nM

COC(=O)N[C@H](C(=O)N[C@@H](C)c1ncc(-c2ccc(C34CCC(c5cnc([C@@H]6CCCN6C(=O)[C@@H](c6ccccc6)N(C)C)[nH]5)(CC3)CC4)cc2)[nH]1)C(C)C [compound 2085]
EC50 [1]: < 1 nM

O=C(N[C@@H](C(=O)N1CCC[C@H]1c1ncc(-c2ccc(C3CCC(c4cnc([C@@H]5CCCN5C(=O)[C@H](NC(=O)C5CC5)c5ccccc5)o4)CC3)cc2)[nH]1)c1ccccc1)C1CC1 (stereo partly drawn) [compound 353]
EC50 [3]: < 1 nM

COC(=O)N[C@@H](C(=O)N1CCC[C@H]1c1ncc(-c2cc(F)c(N3CCC(c4cnc([C@@H]5CCCN5C(=O)[C@H](NC(=O)N5CCN(C)CC5)c5ccccc5)[nH]4)CC3)c(F)c2)[nH]1)c1ccccc1 [compound 462]
EC50 [2]: < 1 nM

COC(=O)N[C@H](C(=O)N1CCC[C@H]1c1ncc(C23CCC(c4ccc(-c5cnc([C@@H]6CCCN6C(=O)[C@@H](NC(=O)N6CC[C@H](O)C6)C(C)C)[nH]5)cc4)(CC2)CC3)[nH]1)C(C)C [compound 651]
EC50 [1]: 1 to 9.9 nM

CC(C)[C@@H](NC(=O)N1CCOCC1)C(=O)N1CCC[C@H]1C(=O)N[C@H]1CC[C@H](c2ccc(-c3cnc([C@@H]4CCCN4C(=O)[C@H](NC(=O)N4CCOCC4)C(C)C)[nH]3)cc2)CC1 [compound 360]
EC50 [3]: 10 to 999 nM

COC(=O)N[C@@H](C(=O)N1CCC[C@H]1c1ncc(-c2ccc(C34CCC(c5cnc([C@@H]6CCCN6C(=O)[C@H](NC(=O)OC)C(C)C)[nH]5)(CC3)CC4)cc2)[nH]1)c1ccccc1 [compound 616]
EC50 [1]: < 1 nM

COC(=O)N[C@H](C(=O)N1CCC[C@H]1c1ncc(-c2ccc(C34CCC(c5cnc([C@@H]6CCCN6C(=O)[C@H](NC6CCOCC6)C(C)C)[nH]5)(CC3)CC4)cc2)[nH]1)C(C)C [compound 2055]
EC50 [1]: < 1 nM

COC(=O)N[C@H](C(=O)N1CCC[C@H]1c1ncc(-c2ccc(C3CCC(c4cnc([C@@H]5CCCN5C(=O)[C@@H](NC(=O)OC)c5ccccc5)[nH]4)CC3)cc2)[nH]1)c1ccccc1 (stereo partly drawn) [compound 374]
EC50 [3]: < 1 nM

C[C@H](NC(=O)[C@H](NC(=O)OC(C)(C)C)c1ccccc1)c1ncc(-c2cc(F)c(N3CCC(c4cnc([C@@H]5CCCN5C(=O)[C@H](NC(=O)OC(C)(C)C)c5ccccc5)[nH]4)CC3)c(F)c2)[nH]1 [compound 520]
EC50 [2]: < 1 nM

CC(C)[C@H](NC(=O)N1CC[C@H](O)C1)C(=O)N1CCC[C@H]1c1nc2ccc(-c3ccc(-c4ccc5nc([C@@H]6CCCN6C(=O)[C@@H](NC(=O)N6CC[C@H](O)C6)C(C)C)[nH]c5c4)cc3)cc2[nH]1 [compound 553]
EC50 [4]: > 1000 nM

COC(=O)N[C@@H](C(=O)N1CCC[C@H]1c1ncc(-c2ccc(-c3ccc4nc([C@@H]5CCCN5C(=O)[C@H](NC(=O)OC)C(C)C)[nH]c4c3)cc2)[nH]1)C(C)C [compound 404]
EC50 (Hepatitis C virus, Huh-7, 72 h, read-out: Inhibition of HCV genotype 1b, Table 2, 72 h incubation): 1 to 9.9 nM

CCN(CC)[C@@H](C(=O)N1CCC[C@H]1c1ncc(C23CCC(c4ccc(-c5cnc([C@@H]6CCCN6C(=O)[C@H](NC(=O)OC)c6ccccc6)[nH]5)cc4)(CC2)CC3)[nH]1)c1ccccc1 [compound 619]
EC50 [1]: < 1 nM

COC(=O)N[C@H](C(=O)N1CCC[C@H]1c1nc2ccc(-c3ccc(-c4ccc5nc([C@@H]6CCCN6C(=O)[C@@H](NC(=O)OC)C6CCOCC6)[nH]c5c4)cc3)cc2[nH]1)C1CCOCC1 [compound 2039]
EC50 [4]: < 1 nM

COC(=O)N[C@@H](C(=O)N1CCC[C@H]1c1ncc(-c2ccc(C34CCC(c5cnc([C@@H]6CCCN6C(=O)[C@@H](NC(=O)N6CCOCC6)C(C)C)[nH]5)(CC3)CC4)cc2)[nH]1)c1ccccc1 [compound 643]
EC50 (read-out: Inhibition of HCV genotype 1b, Table 5, 72 h incubation): 1 to 9.9 nM

COC(=O)N[C@@H](C(=O)N1CCC[C@H]1c1ncc(C2CCC(c3ccc(-c4cnc([C@@H]5CCCN5C(=O)[C@@H](c5ccccc5)N5CCCC5)[nH]4)cc3)CC2)[nH]1)c1ccccc1 (stereo partly drawn) [compound 379]
EC50 [3]: < 1 nM

CC(C)[C@@H](C(=O)N1CCC[C@H]1c1ncc(-c2ccc(C34CCC(c5cnc([C@@H]6CCCN6C(=O)[C@H](C(C)C)N(C)C)[nH]5)(CC3)CC4)cc2)[nH]1)N(C)C [compound 919]
EC50 [1]: 10 to 999 nM

COC(=O)N[C@H](C(=O)N[C@@H](C)c1ncc(C2CCN(c3c(F)cc(-c4cnc([C@@H]5CCCN5C(=O)[C@@H](NC(=O)OC)C(C)C)[nH]4)cc3F)CC2)[nH]1)C(C)C [compound 512]
EC50 [2]: < 1 nM

CC[C@H](C)[C@H](NC(=O)OC)C(=O)N1CCC[C@H]1c1ncc(-c2ccc([C@H]3CC[C@H](c4cnc([C@@H]5CCCN5C(=O)[C@@H](NC(=O)OC)[C@@H](C)CC)[nH]4)CC3)cc2)[nH]1 [compound 943]
EC50 [3]: < 1 nM

COC(=O)N[C@@H](C(=O)N1CCOC[C@H]1c1ncc(C2CCN(c3c(F)cc(-c4cnc([C@@H]5CCCN5C(=O)[C@H](NC(=O)C5CC5)c5ccccc5)[nH]4)cc3F)CC2)[nH]1)c1ccccc1 [compound 502]
EC50 [2]: < 1 nM

COC(=O)N[C@H](C(=O)N1CCC[C@H]1c1ncc(C23CCC(c4ccc(-c5cnc([C@@H]6CCCN6C(=O)[C@H](NC(=O)OC)c6ccccc6)[nH]5)cc4)(CC2)CC3)[nH]1)[C@@H](C)OC [compound 609]
EC50 [1]: < 1 nM

COC(=O)N[C@@H](C(=O)N1CCC[C@H]1c1nc2ccc(-c3ccc(-c4ccc5nc([C@@H]6CCCN6C(=O)[C@H](NC(=O)OC)c6ccccc6)[nH]c5c4)cc3)cc2[nH]1)c1ccccc1 [compound 550]
EC50 [4]: < 1 nM

COC(=O)N[C@H](C(=O)N1CCC[C@H]1c1ncc(-c2ccc([C@H]3CC[C@@H](c4cnc([C@@H]5CCCN5C(=O)[C@@H](NC(=O)OC)C(C)C)[nH]4)CC3)cc2)[nH]1)C(C)C [compound 382]
EC50 [3]: < 1 nM

CC(C)[C@H](NC(=O)N1CCOCC1)C(=O)N1CCC[C@H]1c1ncc(-c2ccc(C34CCC(c5cnc([C@@H]6CCCN6C(=O)[C@@H](NC(=O)N6CCOCC6)C(C)C)[nH]5)(CC3)CC4)cc2)[nH]1 [compound 628]
EC50 [1]: > 1000 nM

COC(=O)N[C@@H](C(=O)N1CCC[C@H]1CNC(=O)C12CCC(c3ccc(-c4cnc([C@@H]5CCCN5C(=O)[C@H](NC(=O)OC)c5ccccc5)[nH]4)cc3)(CC1)CC2)c1ccccc1 [compound 604]
EC50 [1]: < 1 nM

COC(=O)N[C@@H](C(=O)N1CCC[C@H]1c1ncc(C2CCN(c3c(F)cc(-c4cnc([C@@H]5CCCN5C(=O)[C@H](NC(=O)N5CCOCC5)c5ccccc5)[nH]4)cc3F)CC2)[nH]1)c1ccccc1 [compound 481]
EC50 [2]: < 1 nM

COC(=O)N[C@H](C(=O)N1CCC[C@H]1c1ncc(C23CCC(c4ccc(-c5cnc([C@@H]6CCCN6C(=O)[C@@H](NC(=O)N6CCOCC6)C(C)C)[nH]5)cc4)(CC2)CC3)[nH]1)C(C)C [compound 645]
EC50 [1]: < 1 nM

COC(=O)N[C@H](C(=O)N1CCC[C@H]1c1ncc(-c2ccc(C34CCC(c5cnc([C@@H]6CCCN6C(=O)[C@@H](c6ccccc6)N(C)C)[nH]5)(CC3)CC4)cc2)[nH]1)C(C)C [compound 2051]
EC50 [1]: < 1 nM

COC(=O)N[C@@H](C(=O)N1CCC[C@H]1c1ncc(-c2cc(F)c(N3CCC(c4cnc([C@@H]5CCCN5C(=O)[C@@H](c5ccccc5)N5CCOCC5)[nH]4)CC3)c(F)c2)[nH]1)c1ccccc1 [compound 468]
EC50 [2]: < 1 nM

COC(=O)N[C@@H](C(=O)N1CCCC[C@H]1c1ncc(C2CCN(c3c(F)cc(-c4cnc([C@@H]5CCCN5C(=O)[C@@H](c5ccccc5)N5CCCCC5)[nH]4)cc3F)CC2)[nH]1)c1ccccc1 [compound 491]
EC50 [2]: < 1 nM
